Experimental data published in patent US20210198277A1, “AMINE-SUBSTITUTED ARYL OR HETEROARYL COMPOUNDS” (Epizyme, Inc., priority 2016, published 2021).

Each compound was assayed against T1, EHMT2 (Homo sapiens, UniProt Q96KQ7) (assay: MDA-MB-231 H3K9me2 in-cell Western assay (EHMT2 ICW)). Settings: Table III; MDA-MB-231 H3K9me2 in-cell Western; read-out: EHMT2 ICW (IC50 μM).
T1 construct: host or cells: MDA-MB-231
T1 sequence (Q96KQ7 1-1210): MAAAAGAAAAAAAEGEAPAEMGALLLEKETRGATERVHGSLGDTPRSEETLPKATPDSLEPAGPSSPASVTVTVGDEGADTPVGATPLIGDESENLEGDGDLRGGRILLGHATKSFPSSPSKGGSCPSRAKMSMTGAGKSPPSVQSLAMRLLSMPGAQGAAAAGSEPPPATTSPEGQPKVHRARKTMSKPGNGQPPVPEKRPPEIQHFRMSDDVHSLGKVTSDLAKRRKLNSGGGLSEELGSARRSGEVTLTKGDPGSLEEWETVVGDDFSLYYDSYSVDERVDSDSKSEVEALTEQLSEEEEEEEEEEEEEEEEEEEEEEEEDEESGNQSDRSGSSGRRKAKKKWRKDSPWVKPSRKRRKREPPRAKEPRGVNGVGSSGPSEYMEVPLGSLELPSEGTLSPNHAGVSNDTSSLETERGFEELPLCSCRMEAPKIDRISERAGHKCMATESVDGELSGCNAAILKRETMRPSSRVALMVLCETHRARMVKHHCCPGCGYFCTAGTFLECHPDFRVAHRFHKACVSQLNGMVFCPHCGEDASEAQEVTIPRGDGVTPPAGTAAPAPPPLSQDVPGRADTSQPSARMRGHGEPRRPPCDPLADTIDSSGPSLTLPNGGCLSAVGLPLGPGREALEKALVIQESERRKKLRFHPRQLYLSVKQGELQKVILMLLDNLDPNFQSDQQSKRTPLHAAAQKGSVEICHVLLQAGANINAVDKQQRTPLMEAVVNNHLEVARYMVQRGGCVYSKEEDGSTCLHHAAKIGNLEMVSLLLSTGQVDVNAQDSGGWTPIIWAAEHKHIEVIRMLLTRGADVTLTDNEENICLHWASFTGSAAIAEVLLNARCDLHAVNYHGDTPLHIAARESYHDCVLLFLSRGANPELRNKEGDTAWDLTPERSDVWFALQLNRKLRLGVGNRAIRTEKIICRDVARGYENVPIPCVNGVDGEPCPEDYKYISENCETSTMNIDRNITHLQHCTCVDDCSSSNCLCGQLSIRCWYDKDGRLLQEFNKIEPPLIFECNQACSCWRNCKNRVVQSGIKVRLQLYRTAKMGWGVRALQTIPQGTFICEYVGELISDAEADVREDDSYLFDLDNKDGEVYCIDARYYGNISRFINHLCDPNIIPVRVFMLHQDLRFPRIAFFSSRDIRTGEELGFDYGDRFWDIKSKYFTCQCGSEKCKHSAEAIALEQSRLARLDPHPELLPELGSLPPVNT
Format: cell-based
In short: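 Steps: compound added to plate, MDA-MB-231 cells plated in RPMI with 10% FBS, incubation for 48 h at 37 °C, fixation, overnight anti-H3K9me2 staining at 4 °C, and donkey anti-mouse 800CW with DRAQ5 counterstain. IC50 values come from percent inhibition fitted with a four-parameter model.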

| SMILES | IC50 |
| --- | --- |
| CNc1ccnc(Nc2cc(OCCCN3CCCC3)c(OC)cn2)c1 [Compound 305, N^2-(5-methoxy-4-(3-(pyrrolidin-1-yl)propoxy)pyridin-2-yl)-N^4-methylpyridine-2,4-diamine] | 0.1 to 1 µM |
| CNc1nc(C)cc(Nc2cc(OCCCN3CCCC3)c(OC)cn2)n1 [Compound 306, N^4-(5-methoxy-4-(3-(pyrrolidin-1-yl)propoxy)pyridin-2-yl)-N^2,6-dimethylpyrimidine-2,4-diamine] | > 10 µM |
| CNc1cc(C)nc(Nc2cc(OCCCN3CCCC3)c(OC)cn2)c1 [Compound 307, N^2-(5-methoxy-4-(3-(pyrrolidin-1-yl)propoxy)pyridin-2-yl)-N^4,6-dimethylpyridine-2,4-diamine] | 0.1 to 1 µM |
| CNc1cc(Nc2cc(OCCCN3CCCC3)c(OC)cn2)cc(C)n1 [Compound 308, N^4-(5-methoxy-4-(3-(pyrrolidin-1-yl)propoxy)pyridin-2-yl)-N^2,6-dimethylpyridine-2,4-diamine] | 1 to 10 µM |
| CNc1cc(Nc2cc(OCCCN3CCCC3)c(OC)cn2)nc(C)c1F [Compound 309, 5-fluoro-N^2-(5-methoxy-4-(3-(pyrrolidin-1-yl)propoxy)pyridin-2-yl)-N^4,6-dimethylpyridine-2,4-diamine] | 0.1 to 1 µM |
| COc1cnc(Nc2nc(C)cc3[nH]ccc23)cc1OCCCN1CCCC1 [Compound 310] | > 10 µM |
| CNc1cc(C)nc(Nc2ccc(OC)c(OCCOC)c2)n1 [Compound 311, N^2-(4-methoxy-3-(2-methoxyethoxy)phenyl)-N^4,6-dimethylpyrimidine-2,4-diamine] | > 10 µM |
| CNc1cc(C)nc(Nc2ccc(OC)c(OCCCOC)c2)n1 [Compound 312, N^2-(4-methoxy-3-(3-methoxypropoxy)phenyl)-N^4,6-dimethylpyrimidine-2,4-diamine] | > 10 µM |
| CNc1cc(C)nc(Nc2ccc(C3CC3)c(OCCCN3CCCC3)c2)n1 [Compound 313, N^2-(4-cyclopropyl-3-(3-(pyrrolidin-1-yl)propoxy)phenyl)-N^4,6-dimethylpyrimidine-2,4-diamine] | 1 to 10 µM |
| CNc1ccnc(Nc2ccc(C3CC3)c(OCCCN3CCCC3)c2)n1 [Compound 314, N^2-(4-cyclopropyl-3-(3-(pyrrolidin-1-yl)propoxy)phenyl)-N^4-methylpyrimidine-2,4-diamine] | 1 to 10 µM |
| CNc1cc(C)nc(Nc2ccc(OC)c(OC[C@H]3C[C@@H](N(C)C)C3)c2)n1 [Compound 316] | 1 to 10 µM |
| CNc1cc(C)nc(Nc2ccc(OC)c(O[C@H]3C[C@@H](CN(C)C)C3)c2)n1 [Compound 318, N^2-(3-((1s,3s)-3-((dimethylamino)methyl)cyclobutoxy)-4-methoxyphenyl)-N^4,6-dimethylpyrimidine-2,4-diamine] | > 10 µM |
| CCc1nc(Nc2ccc(OC)c(OCCCN3CCCC3)c2)nc(NC)c1F [Compound 319, 6-ethyl-5-fluoro-N^2-(4-methoxy-3-(3-(pyrrolidin-1-yl)propoxy)phenyl)-N^4-methylpyrimidine-2,4-diamine] | 1 to 10 µM |
| CNc1cc(C2CC2)nc(Nc2ccc(OC)c(OCCCN3CCCC3)c2)n1 [Compound 320, 6-cyclopropyl-N^2-(4-methoxy-3-(3-(pyrrolidin-1-yl)propoxy)phenyl)-N^4-methylpyrimidine-2,4-diamine] | 0.1 to 1 µM |
| COc1cnc(Nc2cnc3ccccn23)cc1OCCCN1CCCC1 [Compound 321, N-(5-methoxy-4-(3-(pyrrolidin-1-yl)propoxy)pyridin-2-yl)imidazo[1,2-a]pyridin-3-amine] | > 10 µM |
| CNc1ccnc(Nc2ccc(OC)c(OCCCN3CC(C)C3)c2)n1 [Compound 423, N^2-(4-methoxy-3-(3-(3-methylazetidin-1-yl)propoxy)phenyl)-N^4-methylpyrimidine-2,4-diamine] | 1 to 10 µM |
| CNc1ccnc(Nc2ccc(OC)c(OCCCN(C)CC3CC3)c2)n1 [Compound 424, N^2-(3-(3-((cyclopropylmethyl)(methyl)amino)propoxy)-4-methoxyphenyl)-N^4-methylpyrimidine-2,4-diamine] | 1 to 10 µM |
| CNc1ccnc(Nc2ccc(OC)c(OCCCN3CC(OC)C3)c2)n1 [Compound 425, N^2-(4-methoxy-3-(3-(3-methoxyazetidin-1-yl)propoxy)phenyl)-N^4-methylpyrimidine-2,4-diamine] | 1 to 10 µM |

| SMILES | IC50 |
| --- | --- |
| CNc1ccnc(Nc2ccc(OC)c(OCc3cc(C4CC4)on3)c2)n1 [Compound 426, N^2-(3-((5-cyclopropylisoxazol-3-yl)methoxy)-4-methoxyphenyl)-N^4-methylpyrimidine-2,4-diamine] | > 10 µM |
| CNc1ccnc(N[C@@H]2CCC[C@H](OCCCN3CCCC3)C2)n1 [Compound 427] | > 10 µM |
| CNc1cc(CC(F)(F)F)nc(Nc2ccc(OC)c(OCCCN3CCCC3)c2)n1 [Compound 428, N^2-(4-methoxy-3-(3-(pyrrolidin-1-yl)propoxy)phenyl)-N^4-methyl-6-(2,2,2-trifluoroethyl)pyrimidine-2,4-diamine] | 1 to 10 µM |
| CNc1ccnc(Nc2ccc(OC)c(OCCCN3CCC3C)c2)n1 (centres unmarked) [Compound 429, N^2-(4-methoxy-3-(3-(2-methylazetidin-1-yl)propoxy)phenyl)-N^4-methylpyrimidine-2,4-diamine] | 1 to 10 µM |
| CCOc1ccc(Nc2nccc(NC)n2)cc1OCCCN1CCCC1 [Compound 430, N^2-(4-ethoxy-3-(3-(pyrrolidin-1-yl)propoxy)phenyl)-N^4-methylpyrimidine-2,4-diamine] | > 10 µM |
| CCOc1ccc(Nc2nccc(NC)n2)cc1OCC1CCN(C)C1 (centres unmarked) [Compound 431] | > 10 µM |
| CCOc1ccc(Nc2nc(C)cc(NC)n2)cc1OCCCN1CCCC1 [Compound 432, N^2-(4-ethoxy-3-(3-(pyrrolidin-1-yl)propoxy)phenyl)-N^4,6-dimethylpyrimidine-2,4-diamine] | > 10 µM |
| CNc1ccnc(Nc2ccc(OC)c(OCc3noc(C4CC4)n3)c2)n1 [Compound 433, N^2-(3-((5-cyclopropyl-1,2,4-oxadiazol-3-yl)methoxy)-4-methoxyphenyl)-N^4-methylpyrimidine-2,4-diamine] | > 10 µM |
| CNc1ccnc(Nc2ccc(OC)c(OCc3cn(C4CC4)nn3)c2)n1 [Compound 434, N^2-(3-((1-cyclopropyl-1H-1,2,3-triazol-4-yl)methoxy)-4-methoxyphenyl)-N^4-methylpyrimidine-2,4-diamine] | > 10 µM |
| CNc1cc(C)nc(Nc2ccc(OC)c(OCC3CCN(C)CC3)c2)n1 [Compound 435, N^2-(4-methoxy-3-((1-methylpiperidin-4-yl)methoxy)phenyl)-N^4,6-dimethylpyrimidine-2,4-diamine] | 1 to 10 µM |
| CNc1cc(C)nc(Nc2ccc(OC)c(OCC3CCN(CC4CC4)CC3)c2)n1 [Compound 436, N^2-(3-((1-(cyclopropylmethyl)piperidin-4-yl)methoxy)-4-methoxyphenyl)-N^4,6-dimethylpyrimidine-2,4-diamine] | > 10 µM |
| CNc1cc(C)nc(Nc2ccc(OC)c(OCC3CNC3)c2)n1 [Compound 437, N^2-(3-(azetidin-3-ylmethoxy)-4-methoxyphenyl)-N^4,6-dimethylpyrimidine-2,4-diamine] | 1 to 10 µM |
| CNc1ccnc(Nc2ccc(OC)c(OCCOC3CCCC3)c2)n1 [Compound 440, N^2-(3-(2-(cyclopentyloxy)ethoxy)-4-methoxyphenyl)-N^4-methylpyrimidine-2,4-diamine] | > 10 µM |
| CNc1cc(COC)nc(Nc2ccc(OC)c(OCCCN3CCCC3)c2)n1 [Compound 441, N^2-(4-methoxy-3-(3-(pyrrolidin-1-yl)propoxy)phenyl)-6-(methoxymethyl)-N^4-methylpyrimidine-2,4-diamine] | 1 to 10 µM |
| CNc1cc(C)nc(Nc2ccc(OC)c(OCC3CN(C)C3)c2)n1 [Compound 442, N^2-(4-methoxy-3-((1-methylazetidin-3-yl)methoxy)phenyl)-N^4,6-dimethylpyrimidine-2,4-diamine] | 0.1 to 1 µM |
| CNc1cc(C)nc(Nc2ccc(OC)c(OC3CCN(CC4CC4)CC3)c2)n1 [Compound 443] | > 10 µM |
| CCN1CC(COc2cc(Nc3nc(C)cc(NC)n3)ccc2OC)C1 [Compound 444] | 0.1 to 1 µM |
